Assay results reported in ChEMBL document CHEMBL5036347, “Design of the naphthyl-diarylpyrimidines as potent non-nucleoside reverse transcriptase inhibitors (NNRTIs) via structure-based extension into the entrance channel” (Eur J Med Chem, 2021).

Tests used:
[1] = system: Human immunodeficiency virus 1; test: Antiviral activity against HIV1 harboring reverse transcriptase Y188L mutant infected in human MT4 cells assessed as protection against virus-induced cytopathic effect incubated for 5 days by MTT assay; assay type: functional, organism-based; details: Human immunodeficiency virus 1, MT4, 120 h
[2] = system: Human immunodeficiency virus 1; test: Antiviral activity against HIV1 harboring reverse transcriptase F227L/V106A mutant infected in human MT4 cells assessed as protection against virus-induced cytopathic effect incubated for 5 days by MTT assay; assay type: functional, organism-based; details: Human immunodeficiency virus 1, MT4, 120 h
[3] = Resistance fold, ratio of EC50 for HIV1 harboring reverse transcriptase Y181C mutant […] to EC50 for wild type HIV1 […]; assay type: functional
[4] = Resistance fold, ratio of EC50 for HIV1 harboring reverse transcriptase K103N mutant […] to EC50 for wild type HIV1 […]; assay type: functional
[5] = target: Human immunodeficiency virus type 1 reverse transcriptase (Human immunodeficiency virus 1, UniProt Q72547); test: Inhibition of wild type HIV1 reverse transcriptase using oligo(dT)16 as primer measured after 40 mins by picogreen-dye based spectrofluorimetric analysis
[6] = Resistance fold, ratio of EC50 for HIV1 harboring reverse transcriptase L100I mutant […] to EC50 for wild type HIV1 […]; assay type: functional
[7] = system: Human immunodeficiency virus 1; test: Antiviral activity against HIV1 harboring reverse transcriptase K103N mutant infected in human MT4 cells assessed as protection against virus-induced cytopathic effect incubated for 5 days by MTT assay; assay type: functional, organism-based; details: Human immunodeficiency virus 1, MT4, 120 h
[8] = Resistance fold, ratio of EC50 for HIV1 harboring reverse transcriptase K103N/Y181C double mutant […] to EC50 for wild type HIV1 […]; assay type: functional
[9] = system: Human immunodeficiency virus 1; test: Anti-HIV activity against HIV-1 IIIB infected in human MT4 cells assessed as reduction in virus-induced cytopathic effect incubated for 5 days by MTT assay; assay type: functional, organism-based; details: Human immunodeficiency virus 1, IIIB, MT4, 120 h
[10] = system: Human immunodeficiency virus 1; test: Antiviral activity against HIV1 harboring reverse transcriptase E138K mutant infected in human MT4 cells assessed as protection against virus-induced cytopathic effect incubated for 5 days by MTT assay; assay type: functional, organism-based; details: Human immunodeficiency virus 1, MT4, 120 h
[11] = Resistance fold, ratio of EC50 for HIV1 harboring reverse transcriptase E138K mutant […] to EC50 for wild type HIV1 […]; assay type: functional
[12] = system: Human immunodeficiency virus 1; test: Antiviral activity against HIV1 harboring reverse transcriptase L100I mutant infected in human MT4 cells assessed as protection against virus-induced cytopathic effect incubated for 5 days by MTT assay; assay type: functional, organism-based; details: Human immunodeficiency virus 1, MT4, 120 h
[13] = system: Human immunodeficiency virus 1; test: Antiviral activity against HIV1 harboring reverse transcriptase Y181C mutant infected in human MT4 cells assessed as protection against virus-induced cytopathic effect incubated for 5 days by MTT assay; assay type: functional, organism-based; details: Human immunodeficiency virus 1, MT4, 120 h
[14] = Resistance fold, ratio of EC50 for HIV1 harboring reverse transcriptase F227L/V106A double mutant […] to EC50 for wild type HIV1 […]; assay type: functional
[15] = Resistance fold, ratio of EC50 for HIV1 harboring reverse transcriptase Y188L mutant […] to EC50 for wild type HIV1 […]; assay type: functional
[16] = system: Human immunodeficiency virus 2; test: Anti-HIV activity against HIV2 ROD infected in human MT4 cells assessed as reduction in virus-induced cytopathic effect incubated for 5 days by MTT assay; assay type: functional, organism-based; details: Human immunodeficiency virus 2, ROD, MT4, 120 h
[17] = Selectivity index, ratio of CC50 for cytotoxicity against human MT4 cells to EC50 of Anti-HIV activity against HIV-1 IIIB infected in human MT4; assay type: toxicity, cell-based; details: read-out: Selectivity Index
[18] = Cytotoxicity against human MT4 cells assessed as reduction in cell viability incubated for 5 days by MTT assay; assay type: cell-based; details: human, MT4 cells; time 5 day
[19] = system: Human immunodeficiency virus 1; test: Antiviral activity against HIV1 harboring reverse transcriptase K103N/Y181C double mutant infected in human MT4 cells assessed as protection against virus-induced cytopathic effect incubated for 5 days by MTT assay; assay type: functional, organism-based; details: Human immunodeficiency virus 1, MT4, 120 h

| SMILES | EC50 [1] [µM] | EC50 [2] [µM] | Ratio EC50 [3] | Ratio EC50 [4] | IC50 [5] [µM] | Ratio EC50 [6] | EC50 [7] [µM] | Ratio EC50 [8] | EC50 [9] [µM] | EC50 [10] [µM] | Ratio EC50 [11] | EC50 [12] [µM] | EC50 [13] [µM] | Ratio EC50 [14] | Ratio EC50 [15] | EC50 [16] [µM] | selectivity ratio [17] | CC50 at 120 h [18] [µM] | EC50 [19] [µM] | other results |
| --- | --- | --- | --- | --- | --- | --- | --- | --- | --- | --- | --- | --- | --- | --- | --- | --- | --- | --- | --- | --- |
| COc1cc2cc(C#N)ccc2c(OC)c1Oc1cc(NCCC2=CCCCC2)nc(Nc2ccc(C#N)cc2)n1 | 148 | 164 | 11 | 1 | 0.28 | 50 | 0.18 | 90 | 0.33 | 0.53 | 5 | 16.6 | 4.65 | 494 | 445 | > 1000 | > 688 | > 125 | 30 | – |
| COc1cc2cc(C#N)ccc2c(OC)c1Oc1cc(N2CCOCC2)nc(Nc2ccc(C#N)cc2)n1 | 2.34 | – | 8 | 3 | 0.25 | 14 | 0.13 | 634 | 0.038 | 0.051 | 1 | 0.52 | 0.29 | >26525 | 62 | > 1000 | > 6510 | > 125 | 23.9 | IC50 [2]: > 1000 µM |
| COc1cc2cc(C#N)ccc2c(OC)c1Oc1cc(NCC2CCOC2)nc(Nc2ccc(C#N)cc2)n1 (stereo unspecified) | 0.67 | 7.78 | 9 | 1 | 0.06 | 22 | 0.016 | 36 | 0.019 | 0.047 | 2 | 0.37 | 0.17 | 410 | 35 | > 1000 | > 12500 | > 125 | 0.68 | – |
| COc1cc2cc(C#N)ccc2c(OC)c1Oc1cc(NC2CCC2)nc(Nc2ccc(C#N)cc2)n1 | 2.47 | 145 | 9 | 1 | 0.11 | 28 | – | 86 | 0.037 | 0.084 | 5 | 1.02 | 0.33 | 3981 | 68 | > 1000 | > 7040 | > 125 | 3.13 | IC50 [7]: 0.044 µM |
| COc1cc2cc(C#N)ccc2c(OC)c1Oc1cc(NCC2CC2)nc(Nc2ccc(C#N)cc2)n1 | 1.42 | 74.4 | 9 | 1 | 0.09 | 39 | 0.031 | 56 | 0.025 | 0.059 | 5 | 0.96 | – | 3026 | 58 | 213 | > 10500 | > 125 | 1.37 | IC50 [13]: 0.21 µM |
| COc1cc2cc(C#N)ccc2c(OC)c1Oc1cc(NC2CCCCC2)nc(Nc2ccc(C#N)cc2)n1 | 50.3 | > 1000 | 12 | 1 | 0.44 | 379 | 0.13 | 933 | 0.1 | 0.57 | 2 | 39.8 | 1.27 | >9533 | 479 | – | > 2290 | > 125 | 97.9 | IC50 [16]: > 1000 µM |
| COc1cc2cc(C#N)ccc2c(OC)c1Oc1cc(NC2CCOC2)nc(Nc2ccc(C#N)cc2)n1 (stereo unspecified) | 0.56 | 2.01 | 7 | 1 | 0.18 | 19 | 0.028 | 49 | 0.013 | 0.047 | 2 | 0.23 | 0.085 | 156 | 43 | > 1000 | > 19000 | > 125 | 0.64 | – |
| COc1cc2cc(C#N)ccc2c(OC)c1Oc1cc(NC2CC2)nc(Nc2ccc(C#N)cc2)n1 | – | 9.59 | 9 | 2 | 0.08 | 29 | 0.038 | 63 | 0.02 | 0.061 | 3 | 0.59 | 0.19 | 468 | 45 | > 1000 | > 12700 | > 125 | 1.28 | IC50 [1]: 0.91 µM |
| COc1cc2cc(C#N)ccc2c(OC)c1Oc1cc(NCC(F)(F)F)nc(Nc2ccc(C#N)cc2)n1 | 1.8 | 5.91 | 10 | 1 | 0.14 | 14 | 0.04 | 71 | 0.035 | – | 2 | 0.49 | 0.36 | 168 | 51 | 186 | > 6820 | > 125 | 2.52 | IC50 [10]: 0.073 µM |
